Experiments:
[1] = system: Desiree potatoes (tubers); test: Example 1: plant emergence and plant growth from treated tubers planted in greenhouse; type: in vivo, Solanum tuberosum; settings: 200 μL then 1000 μL in 9.2 L desiccator, 56 hour treatment, harvest 21 days after planting
Description: Methods: […] potatoes were produced in research plots at the Edmonton Research Station, University of Alberta in 1999. The tubers were harvested in September, washed, transported to Washington State University and placed in 4° C. storage in late October. Tubers, selected for uniform size, were taken from the storage area for the experiment in June. The 9-month-old tubers were fully emerged from dormancy after this prolonged storage interval; however, no sprout growth had occurred at the low storage temperature. The tubers were washed, air-dried, and evenly divided between two 9.2 liter (L) glass desiccators (8 tubers per desiccator). Trans-2-hexenal (200 μL) was pipetted into a 50 milliliter (mL) beaker that was placed inside one of the desiccators. The other desiccator served as control. Both desiccators were closed and the tubers were incubated in the two atmospheres for 32 hours. The desiccators were then opened, an additional 1000 μL of trans-2-hexenal was added to the beaker, and the desiccators were closed for an additional 24 hours. One tuber from each chamber was sampled for trans-2-hexenal content at the end of the 56 hour treatment interval. […] Time to plant emergence was recorded and plants were harvested 21 days after planting. Plants were separated into various components (e.g., stems, leaves) at harvest and the effects of trans-2-hexenal on plant morphology were assessed.

Umatilla seed-tubers = test: Example 2: etiolated sprout development and tuber quality, Umatilla; type: in vivo, Solanum tuberosum; settings: 4.7 mmol/kg potato tubers, 25 days
Description: Methods: Ten-month-old Ranger Russet, Umatilla and Russet Burbank seed-tubers were taken from 4° C. storage and treated with trans-2-hexenal in 9.2-L glass desiccators as described in Example 1. The tubers were exposed to trans-2-hexenal for 0, 12 and 24 hours at 23° C. at a concentration of 4.7 mmol/kg potato tubers. Regardless of exposure time, all tubers remained enclosed in the chambers for the entire 24 hour period. This was accomplished by introducing the trans-2-hexenal at zero-time (into the 24 hour treatment desiccator) and after 12 hour incubation (into the 12 hour treatment desiccator) through a septum in the top of the closed desiccator. The treated tubers were planted into moistened peat/perlite/soil potting mix and placed in the dark at 24° C. to stimulate sprouting. The experiment was set up in a randomized complete block design (5 replicates) with treatments (3 cultivars×3 exposure times) arranged factorially. Effects of trans-2-hexenal exposure and cultivar on etiolated sprout development and tuber quality were assessed 25 days after removal from the 4° C. storage.

CCC/C=C/C=O [trans-2-hexenal]
sprouting, plant emergence and plant growth from potato tubers (in words) [1]: clearly inhibited sprouting
Average Sprout Length (Umatilla seed-tubers; 12 h exposure): 0 cm/tuber
External Pit Rating (1-4 scale) (Umatilla seed-tubers; 12 h exposure): 3.7
Soft Rot Lesions (Umatilla seed-tubers; 12 h exposure): 2.2 no/tuber
Sprout Fresh Weight (Umatilla seed-tubers; 12 h exposure): 0 g/tuber
Average Sprout Length (Umatilla seed-tubers; 24 h exposure): 0 cm/tuber
External Pit Rating (1-4 scale) (Umatilla seed-tubers; 24 h exposure): 4.0
Soft Rot Lesions (Umatilla seed-tubers; 24 h exposure): 2.6 no/tuber
Sprout Fresh Weight (Umatilla seed-tubers; 24 h exposure): 0 g/tuber

Reference: US6855669B2, “Use of α,β unsaturated aliphatic aldehydes and ketones to inhibit potato tuber sprouting” (Washington State University Research Foundation, priority 2000, dated 2005)
